# Source: patent US20250188088A1, “COMPOUND AND USE THEREOF” (ONQUALITY PHARMACEUTICALS CHINA LTD., priority 2022, published 2025)
# Legend:
# [1] = test system: rash caused by small molecule EGFR inhibitors; experiment: Prevention of rash caused by small molecule EGFR inhibitors, topical ointment, rat model; format: in vivo, SD rats
# In short: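 Female SD rats (~200 g, dorsal hair shaved, 10/group) dosed daily by gavage with small-molecule EGFR inhibitors; compound ointment or blank matrix applied once daily to ~3 cm×3 cm of back, left 4 h, then wiped off. Repeated until obvious rash in controls; control rate = % of treated rats with milder rash than controls.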
# [2] = Log D measurement (n-octanol/PBS shake, LC-MS/MS); format: physicochemical; conditions: pH 7.4, read-out: LogD7.4 (Oct/buff)
# Experimental: Two replicates of test compounds (DMSO stock solution 10 mM, 2 μL/well) and QCs (DMSO 10 mM, 2 μL/well) were transferred from the storage tube to a 96-well cluster tube. Add buffer-saturated n-octanol ([…]) and n-octanol-saturated PBS (149 μL/well) to each well; vortex mix the cluster tube for 1 minute, mix by shaking on a plate shaker at 880 rpm for one hour, and then centrifuge at 4000 rpm for 10 minutes. Remove the cover pad, accurately measure a certain amount of n-octanol layer samples (4 μL/well) into a 96-well plate containing n-octanol internal standard diluent (796 μL/well); accurately measure a certain amount of buffer salt layer samples (30 μL/well) into a 96-well plate containing buffer internal standard diluent (570 μL/well); the dilution factor of the sample can be adjusted according to different properties of the sample. Samples were analyzed using a triple quadrupole mass spectrometer. The processed sample solution was analyzed by the fast isocratic elution and small column retention method, the concentration correction was carried out by dilution factor and internal standard, and the ratio of the corrected peak area was used to calculate the final result (Log D/Log P value).
smiles,measurement,setting,value
C[C@@H]1CCN(C(=O)CC#N)C[C@@H]1N(C)c1ncnc2c1ccn2C(=O)N(C)CCOC(=O)C1CCCO1 (some centres unmarked) [Compound A7],Control Rate,"[1]; Afatinib 40 mg/kg once a day, ointment 0.1 wt% once a day, 14 days",20%
same,Control Rate,"[1]; Afatinib 40 mg/kg once a day, ointment 0.3 wt% once a day, 14 days",50%
same,Control Rate,"[1]; Afatinib 40 mg/kg once a day, ointment 1.0 wt% once a day, 14 days",70%
same,Control Rate,"[1]; Afatinib 40 mg/kg once a day, ointment 3.0 wt% once a day, 14 days",75%
same,Control Rate,"[1]; Afatinib 40 mg/kg once a day, ointment 5.0 wt% once a day, 14 days",80%
same,Control Rate,"[1]; Afatinib 40 mg/kg once a day, ointment 10.0 wt% once a day, 14 days",60%
same,Control Rate,"[1]; Dacomitinib 10 mg/kg once a day, ointment 1.0 wt% once a day, 12 days",40%
same,Control Rate,"[1]; Dacomitinib 10 mg/kg once a day, ointment 5.0 wt% once a day, 12 days",80%
same,Control Rate,"[1]; EAI045 80 mg/kg once a day, ointment 1.0 wt% once a day, 11 days",30%
same,Control Rate,"[1]; EAI045 80 mg/kg once a day, ointment 10.0 wt% once a day, 11 days",60%
same,Control Rate,"[1]; Gefitinib 80 mg/kg twice a day, ointment 0.3 wt% once a day, 15 days",10%
same,Control Rate,"[1]; Gefitinib 80 mg/kg twice a day, ointment 1.0 wt% once a day, 15 days",50%
same,Control Rate,"[1]; Gefitinib 80 mg/kg twice a day, ointment 3.0 wt% once a day, 15 days",60%
same,Control Rate,"[1]; Gefitinib 80 mg/kg twice a day, ointment 5.0 wt% once a day, 15 days",60%
same,Control Rate,"[1]; Osimertinib 60 mg/kg twice a day, ointment 0.3 wt% once a day, 10 days",20%
same,Control Rate,"[1]; Osimertinib 60 mg/kg twice a day, ointment 5.0 wt% once a day, 10 days",70%
same,logD,[2],0.63
